This note sets out measurements from patent EP4745138A1, “THIO-GLUTARIMIDO ISOINDOLINONE DERIVATIVE, BIFUNCTIONAL PROTEIN DEGRADER CONTAINING SAME, AND USES THEREOF” (Gluetacs Therapeutics (Shanghai) Co., Ltd., priority 2023, dated 2025).

One experiment relates to H1975. The experiment in a line: Tumor cell proliferation inhibition (CellTiter-Meiluncell Luminescent Cell Viability Assay). The class given is cell-based. Particulars: Homo sapiens, 96 hours, Table I-3, EGFR inhibitors. In a few lines:
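Luminescent viability read-out (CellTiter-Meiluncell) after compound exposure for a specified time; IC50 determined. Seeding was done the day before dosing with serially diluted compound, final concentrations including 500 nM and 10 nM. Culture at 37°C, 5% CO2.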

The test system of another experiment is EGFR. The experiment in a line: Western blot, target protein degradation in H1975 Cell. The class given is cell-based, Human. To be noted: substrate protein remaining %, treated at 500 nM and 50 nM, 24 hours. The procedure: (§1) Conventional Western blot assay was performed to evaluate the effects of the compounds of the present disclosure on the expression of target proteins in cells.
(§2) (1) Cell Seeding and Protein Harvesting: The selected cells were processed according to the cell seeding procedure and protein harvesting procedure in Table II-2. Table II-2 Cell Seeding and Protein Harvesting Procedures
(§3) (2) To the collected supernatant, 5X SDS sample loading buffer was added, followed by denaturation at 95°C for 5 minutes. The denatured samples were then separated by SDS-PAGE electrophoresis on a polyacrylamide gel. Proteins were transferred to a nitrocellulose membrane (0.45 µm NC membrane), blocked with blocking buffer at room temperature for 1 hour, and subjected to antibody incubation and development procedures according to the antibody manufacturer's instructions (Cell Signaling Technology).
(§4) Half-Maximal Degradation Concentration value (the drug concentration required for degrading proteins by 50%, abbreviated as DC50) reads method: comparing the grayscale values of Western blot bands from drug-treated samples with those from blank DMSO-treated controls, and identifying the drug concentration range at which the grayscale value is half that of the DMSO-treated control bands.
(§5) DC50 values can be calculated using ImageJ software to measure grayscale values of Western blot bands from drug-treated samples. The concentration-response curve is fitted to estimate the drug concentration corresponding to half the grayscale value.
(§6) Target protein remaining (%) refers to the percentage of target protein remaining in cells after treatment with protein degrader compounds.
(§7) Calculation method for target protein remaining (%): Use ImageJ software to measure grayscale values of Western blot bands from drug (protein degrader)-treated samples. The grayscale value of drug-treated bands is divided by that of internal control protein bands, and the resulting quotient is normalized to obtain the relative percentage of remaining target protein after protein degrader treatment. Target protein degradation rate(%) = 1−target protein remaining(%). [formula]
(In western blotting, separated proteins are transferred to a membrane and probed.)

The target in experiment [1] is T1, human Cereblon WT GST-tagged protein (Homo sapiens, UniProt Q96SW2).
T1 construct: purchased CISBIO 64BDCRBNPEH
Description: CRBN-binding affinity, HTRF (CEREBLON BINDING kit). Particulars: for inhibition at 0.5 µM: read-out: Inhibition Rate at 0.5 µM (%); for inhibition at 2 µM: read-out: Inhibition Rate at 2 µM (%). In a few lines: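 GST-tagged human wild-type Cereblon is mixed with test compound (final 2 µM and 0.5 µM) plus an anti-GST europium antibody/thalidomide-Red tracer pair. Binding is read as HTRF displacement, with buffer-only blank wells.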
A general note: Time-resolved FRET reads energy transfer from a long-lived donor to a nearby acceptor.

Another experiment deals with MV-4-11. The experiment in a line: Tumor cell proliferation inhibition (CellTiter-Meiluncell Luminescent Cell Viability Assay). Particulars: Homo sapiens, 96 hours; for inhibition at 0.01 µM: MV4-11, 10 nM, read-out: Inhibition Rate at 10 nM (%); for inhibition at 0.5 µM: MV4-11, 500 nM, read-out: Inhibition Rate at 500 nM (%). The class given is cell-based. In short, it runs like this:
(§8)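 Following overnight seeding, tumor cells received serial compound dilutions to final levels that included 10 nM and 500 nM. Viability was assessed by luminescence at the end of the specified exposure time. Cultures were kept at 37°C with 5% CO2.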

Another experiment has as its target T2, BCR-ABL (Homo sapiens, UniProt P00519+P11274+Q96SW2, E27K).
T2 construct: endogenous in cells; host or cells: K562
Description: Western blot, target protein degradation in K562 Cell. The class given is cell-based. To be noted: substrate protein remaining %, treated at 500 nM and 50 nM, 24 hours. As to the method: as §1, §2, §3, §4, §5, §6, §7

The subject of a further experiment is MM.1S. The experiment in a line: Tumor cell proliferation inhibition (CellTiter-Meiluncell Luminescent Cell Viability Assay). To be noted: Homo sapiens, MM1.S, MM.1S, 96 hours, Table I-10, BCR-ABL inhibitors; for inhibition at 0.01 µM: 10 nM, read-out: Inhibition Rate at 10 nM (%); for inhibition at 0.5 µM: 500 nM, read-out: Inhibition Rate at 500 nM (%). The class given is cell-based. In short, it runs like this: as §8

The subject of another experiment is RPMI-8226. Described as above. The class given is cell-based. Particulars: Homo sapiens, 96 hours; for inhibition at 0.01 µM: 10 nM, read-out: Inhibition Rate at 10 nM (%); for inhibition at 0.5 µM: 500 nM, read-out: Inhibition Rate at 500 nM (%). In short, it runs like this:
as §8

The test system of another experiment is SW620. The experiment is described as above. The class given is cell-based. To be noted: Homo sapiens, 96 hours, Table I-10, BCR-ABL inhibitors. In short, it runs like this: as §8

Read-outs that look alike come from different tables or passages of the source.

T2 sequence (P11274+P00519 fused, stated change not applied): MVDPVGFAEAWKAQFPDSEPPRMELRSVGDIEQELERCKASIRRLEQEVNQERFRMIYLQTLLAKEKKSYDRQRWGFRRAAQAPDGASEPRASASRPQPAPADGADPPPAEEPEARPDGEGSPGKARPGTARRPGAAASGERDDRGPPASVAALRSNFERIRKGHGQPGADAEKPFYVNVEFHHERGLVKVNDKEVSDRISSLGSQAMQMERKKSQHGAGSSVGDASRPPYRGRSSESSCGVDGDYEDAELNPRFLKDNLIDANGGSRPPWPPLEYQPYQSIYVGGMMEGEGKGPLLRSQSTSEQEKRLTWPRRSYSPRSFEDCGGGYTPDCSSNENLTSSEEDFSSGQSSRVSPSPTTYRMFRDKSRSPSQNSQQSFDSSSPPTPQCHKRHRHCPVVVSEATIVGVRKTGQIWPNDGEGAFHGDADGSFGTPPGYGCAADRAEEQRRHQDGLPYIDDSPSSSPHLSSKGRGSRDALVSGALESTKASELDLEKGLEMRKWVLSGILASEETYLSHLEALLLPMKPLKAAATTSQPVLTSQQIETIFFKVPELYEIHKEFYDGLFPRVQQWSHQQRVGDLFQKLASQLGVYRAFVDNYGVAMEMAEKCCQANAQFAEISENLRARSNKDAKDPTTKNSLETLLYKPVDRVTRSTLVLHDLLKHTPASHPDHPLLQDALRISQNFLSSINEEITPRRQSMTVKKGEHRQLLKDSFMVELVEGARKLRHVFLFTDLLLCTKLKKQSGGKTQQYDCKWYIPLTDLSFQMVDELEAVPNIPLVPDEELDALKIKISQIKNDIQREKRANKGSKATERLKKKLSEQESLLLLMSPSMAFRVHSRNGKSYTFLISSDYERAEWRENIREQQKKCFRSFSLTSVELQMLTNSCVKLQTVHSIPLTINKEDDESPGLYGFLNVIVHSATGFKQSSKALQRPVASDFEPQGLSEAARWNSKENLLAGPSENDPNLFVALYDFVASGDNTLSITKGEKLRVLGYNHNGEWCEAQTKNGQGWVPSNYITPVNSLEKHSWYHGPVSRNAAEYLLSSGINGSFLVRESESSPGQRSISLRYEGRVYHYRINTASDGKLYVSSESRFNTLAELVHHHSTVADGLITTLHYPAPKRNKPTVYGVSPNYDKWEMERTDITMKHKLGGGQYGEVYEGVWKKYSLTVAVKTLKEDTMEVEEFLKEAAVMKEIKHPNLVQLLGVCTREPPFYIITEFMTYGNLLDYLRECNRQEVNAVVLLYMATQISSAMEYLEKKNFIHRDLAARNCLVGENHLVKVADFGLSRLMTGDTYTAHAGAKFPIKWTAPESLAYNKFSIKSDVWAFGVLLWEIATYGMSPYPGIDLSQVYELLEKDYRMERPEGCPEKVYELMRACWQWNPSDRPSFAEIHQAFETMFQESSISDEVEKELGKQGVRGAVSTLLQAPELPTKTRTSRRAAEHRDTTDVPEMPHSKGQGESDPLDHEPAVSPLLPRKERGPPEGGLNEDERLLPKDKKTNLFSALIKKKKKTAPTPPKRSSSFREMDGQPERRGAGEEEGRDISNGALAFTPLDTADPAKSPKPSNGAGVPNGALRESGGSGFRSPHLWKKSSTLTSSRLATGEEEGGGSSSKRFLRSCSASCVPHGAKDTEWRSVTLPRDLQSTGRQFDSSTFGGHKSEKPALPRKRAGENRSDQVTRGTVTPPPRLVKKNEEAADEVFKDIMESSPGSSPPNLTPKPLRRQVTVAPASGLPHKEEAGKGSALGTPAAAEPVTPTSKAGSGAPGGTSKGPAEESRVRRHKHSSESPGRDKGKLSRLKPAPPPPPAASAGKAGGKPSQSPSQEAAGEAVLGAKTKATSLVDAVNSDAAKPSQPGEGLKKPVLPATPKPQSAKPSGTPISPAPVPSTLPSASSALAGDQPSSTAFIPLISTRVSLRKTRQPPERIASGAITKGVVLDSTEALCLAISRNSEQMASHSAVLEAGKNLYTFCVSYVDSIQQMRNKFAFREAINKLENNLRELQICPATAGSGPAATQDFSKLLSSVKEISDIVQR
T2 sequence (Q96SW2 whole entry, stated change not applied): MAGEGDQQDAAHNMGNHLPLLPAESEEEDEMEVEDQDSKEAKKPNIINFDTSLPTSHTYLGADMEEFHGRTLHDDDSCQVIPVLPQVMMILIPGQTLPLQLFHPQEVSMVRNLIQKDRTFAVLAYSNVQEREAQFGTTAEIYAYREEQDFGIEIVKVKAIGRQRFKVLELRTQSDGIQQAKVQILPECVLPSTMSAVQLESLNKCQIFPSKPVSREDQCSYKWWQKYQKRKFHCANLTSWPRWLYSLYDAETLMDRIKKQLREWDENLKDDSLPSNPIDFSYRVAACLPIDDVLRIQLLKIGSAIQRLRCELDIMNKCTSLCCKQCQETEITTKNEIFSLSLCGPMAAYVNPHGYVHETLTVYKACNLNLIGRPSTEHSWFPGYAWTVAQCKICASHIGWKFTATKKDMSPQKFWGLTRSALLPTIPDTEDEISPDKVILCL
T2 sequence (Q16531 whole entry partner): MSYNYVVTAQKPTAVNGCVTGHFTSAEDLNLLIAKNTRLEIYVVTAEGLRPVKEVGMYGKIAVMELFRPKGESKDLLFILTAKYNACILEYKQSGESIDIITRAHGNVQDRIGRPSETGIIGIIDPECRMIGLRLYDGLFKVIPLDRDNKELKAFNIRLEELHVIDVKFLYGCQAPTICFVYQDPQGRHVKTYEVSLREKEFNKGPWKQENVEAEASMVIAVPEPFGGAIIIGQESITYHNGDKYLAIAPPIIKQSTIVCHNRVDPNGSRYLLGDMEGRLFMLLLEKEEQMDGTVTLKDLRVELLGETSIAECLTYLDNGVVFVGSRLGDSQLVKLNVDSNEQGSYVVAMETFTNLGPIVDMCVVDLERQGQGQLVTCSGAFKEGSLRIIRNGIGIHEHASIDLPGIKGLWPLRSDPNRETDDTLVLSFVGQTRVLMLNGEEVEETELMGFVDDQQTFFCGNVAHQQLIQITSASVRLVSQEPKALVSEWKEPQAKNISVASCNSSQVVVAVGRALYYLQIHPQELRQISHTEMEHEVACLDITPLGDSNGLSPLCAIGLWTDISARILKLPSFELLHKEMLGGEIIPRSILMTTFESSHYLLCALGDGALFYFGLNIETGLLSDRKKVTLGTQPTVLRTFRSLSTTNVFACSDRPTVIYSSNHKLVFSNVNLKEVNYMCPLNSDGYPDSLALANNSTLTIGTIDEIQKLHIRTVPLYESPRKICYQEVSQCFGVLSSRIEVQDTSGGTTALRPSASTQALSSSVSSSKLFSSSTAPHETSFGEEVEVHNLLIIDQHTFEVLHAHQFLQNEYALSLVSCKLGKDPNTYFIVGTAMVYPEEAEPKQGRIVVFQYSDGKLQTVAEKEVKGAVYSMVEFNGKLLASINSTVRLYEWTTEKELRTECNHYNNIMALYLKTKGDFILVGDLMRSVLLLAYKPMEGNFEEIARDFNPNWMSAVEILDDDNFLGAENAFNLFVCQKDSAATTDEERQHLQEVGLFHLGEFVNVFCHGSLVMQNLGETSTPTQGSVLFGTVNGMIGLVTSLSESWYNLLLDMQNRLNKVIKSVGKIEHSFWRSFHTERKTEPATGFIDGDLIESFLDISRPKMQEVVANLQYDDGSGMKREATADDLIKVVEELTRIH
T1 sequence (Q96SW2 whole entry): as the sequence (Q96SW2 whole entry, stated change not applied) above

As usually defined, the inhibition is the relative decrease from the control value, in per cent. `O=C1CCC(N2Cc3ccc(CN4C[C@H]5C[C@@H]4CN5c4ccc(-c5cc(F)c6c(c5)C(=O)N(C(C(=O)Nc5nccs5)c5ncn7c5CCC7)C6)cc4)cc3C2=S)C(=O)N1` (stereo partly drawn) [GT-08764, 2-(6,7-dihydro-5H-pyrrolo[1,2-c]imidazol-1-yl)-2-(6-(4-((1R,4R)-5-((2-(2,6-dioxopiperidin-3-yl)-3-thioxoisoindolin-5-yl)methyl)-2,5-diazabicyclo[2.2.1]heptan-2-yl)phenyl)-4-fluoro-1-oxoisoindolin-2-yl)-N-(thiazol-2-yl)acetamide]: the inhibition at 0.01 µM in the experiment with H1975 (NCI-H1975, 10 nM, read-out: Inhibition Rate at 10 nM (%)) lay in the range of 20 to 30%. Besides, the inhibition at 0.5 µM was in the range of 50 to 60% with H1975 (NCI-H1975, 500 nM, read-out: Inhibition Rate at 500 nM (%)) and 60 to 80% in experiment [1]. Further, the “Degradation of substrate protein EGFR” value with EGFR is reported as “A (0% ≤ substrate protein remaining % ≤ 80%)”. Moreover, in experiment [1], the inhibition at 2 µM fell in the range of 60 to 80%.
For the compound `Cc1ccc(C(=O)Nc2ccc(N3CCN(Cc4cccc5c4CN(C4CCC(=O)NC4=O)C5=S)CC3)c(C(F)(F)F)c2)cc1C#Cc1cnc2cccnn12` (stereo not shown) [GT-08774, N-(4-(4-((2-(2,6-dioxopiperidin-3-yl)-1-thioxoisoindolin-4-yl)methyl)piperazin-1-yl)-3-(trifluoromethyl)phenyl)-3-(imidazo[1,2-b]pyridazin-3-ylethynyl)-4-methylbenzamide], in the experiment with MV-4-11 (Table I-10, BCR-ABL inhibitors), the inhibition at 0.01 µM was in the range of 20 to 30% and the inhibition at 0.5 µM fell in the range of 70 to 80%. For the same compound, at BCR-ABL, the “Degradation of substrate protein BCR-ABL” value is listed as “A (0% ≤ substrate protein remaining % ≤ 80%)”.
`O=C1CCC(N2Cc3cc(CN4CCN(C5CCN(c6ncc(C(=O)Nc7ccc(OC(F)(F)Cl)cc7)cc6-c6cc[nH]n6)CC5)CC4)ccc3C2=S)C(=O)N1` (stereo not shown) [GT-08770, N-(4-(chlorodifluoromethoxy)phenyl)-6-(4-(4-((2-(2,6-dioxopiperidin-3-yl)-1-thioxoisoindolin-5-yl)methyl)piperazin-1-yl)piperidin-1-yl)-5-(1H-pyrazol-3-yl)nicotinamide]: the inhibition at 0.01 µM lay in the range of 5 to 10% in the experiment on MM.1S and 10 to 20% in the experiment on RPMI-8226 (Table I-10, BCR-ABL inhibitors). Besides, the inhibition at 0.5 µM with MM.1S is 30 to 40%; with RPMI-8226 (Table I-10, BCR-ABL inhibitors) it was 40 to 50%; in experiment [1], 20 to 30%. For the same compound, the “Degradation of substrate protein BCR-ABL” value at BCR-ABL is on record as “A (0% ≤ substrate protein remaining % ≤ 80%)”. In addition, the inhibition at 2 µM in experiment [1] lay within 60 to 80%.
With `COc1cc(N2CCC(N(C)Cc3ccc4c(c3)C(=S)N(C3CCC(=O)NC3=O)C4)CC2)c(C)cc1Nc1ncc(Br)c(Nc2ccc3nccnc3c2P(C)(C)=O)n1` (stereo not shown) [GT-08761, 3-(6-(((1-(4-((5-bromo-4-((5-(dimethylphosphoryl)quinoxalin-6-yl)amino)pyrimidin-2-yl)amino)-5-methoxy-2-methylphenyl)piperidin-4-yl)(methyl)amino)methyl)-1-thioxoisoindolin-2-yl)piperidine-2,6-dione], in the experiment with MV-4-11 (Table I-3, EGFR inhibitors), the inhibition at 0.01 µM lay in the range of 5 to 10% and the inhibition at 0.5 µM was in the range of 60 to 70%. In the experiment with RPMI-8226 (Table I-3, EGFR inhibitors), the inhibition at 0.01 µM lay within 20 to 30% and the inhibition at 0.5 µM is 40 to 50%. For the same compound, the “Degradation of substrate protein EGFR” value in the experiment with EGFR is listed as “A (0% ≤ substrate protein remaining % ≤ 80%)”. Besides, in experiment [1], the inhibition at 0.5 µM fell in the range of 60 to 80% and the inhibition at 2 µM lay in the range of 80 to 100%.
Regarding `O=C1CCC(N2Cc3c(CN4CCN(C5CCN(c6ncc(C(=O)Nc7ccc(OC(F)(F)Cl)cc7)cc6-c6cc[nH]n6)CC5)CC4)cccc3C2=S)C(=O)N1` (stereo not shown) [GT-08776, N-(4-(chlorodifluoromethoxy)phenyl)-6-(4-(4-((2-(2,6-dioxopiperidin-3-yl)-1-thioxoisoindolin-4-yl)methyl)piperazin-1-yl)piperidin-1-yl)-5-(1H-pyrazol-3-yl)nicotinamide], the “Degradation of substrate protein BCR-ABL” value on BCR-ABL was “A (0% ≤ substrate protein remaining % ≤ 80%)”. In addition, in experiment [1], the inhibition at 0.5 µM was in the range of 40 to 53% and the inhibition at 2 µM is 60 to 80%.
On to `Cc1ccc(C(=O)Nc2ccc(N3CCN(Cc4ccc5c(c4)CN(C4CCC(=O)NC4=O)C5=S)CC3)c(C(F)(F)F)c2)cc1C#Cc1cnc2cccnn12` (stereo not shown) [GT-08768, N-(4-(4-((2-(2,6-dioxopiperidin-3-yl)-1-thioxoisoindolin-5-yl)methyl)piperazin-1-yl)-3-(trifluoromethyl)phenyl)-3-(imidazo[1,2-b]pyridazin-3-ylethynyl)-4-methylbenzamide], for which the “Degradation of substrate protein BCR-ABL” value at BCR-ABL is “A (0% ≤ substrate protein remaining % ≤ 80%)”.
Turning to `Cc1ccc(C(=O)Nc2ccc(CN3CCN(Cc4ccc5c(c4)CN(C4CCC(=O)NC4=O)C5=S)CC3)c(C(F)(F)F)c2)cc1C#Cc1cnc2cccnn12` (stereo not shown) [GT-08767, N-(4-((4-((2-(2,6-dioxopiperidin-3-yl)-1-thioxoisoindolin-5-yl)methyl)piperazin-1-yl)methyl)-3-(trifluoromethyl)phenyl)-3-(imidazo[1,2-b]pyridazin-3-ylethynyl)-4-methylbenzamide], the inhibition at 0.01 µM in the experiment with MM.1S lay within 70 to 80%; in the experiment with MV-4-11 (Table I-10, BCR-ABL inhibitors), 80 to 100%; in the experiment with RPMI-8226 (Table I-10, BCR-ABL inhibitors) it was 20 to 30%; in the experiment on SW620 (SW-620, 10 nM, read-out: Inhibition Rate at 10 nM (%)), 40 to 50%. Further, the inhibition at 0.5 µM in the experiment with MM.1S was 80 to 100%; in the experiment with MV-4-11 (Table I-10, BCR-ABL inhibitors), 80 to 100%; with RPMI-8226 (Table I-10, BCR-ABL inhibitors) it was 80 to 100%; with SW620 (SW-620, 500 nM, read-out: Inhibition Rate at 500 nM (%)), 80 to 100%. Further, the “Degradation of substrate protein BCR-ABL” value on BCR-ABL was “A (0% ≤ substrate protein remaining % ≤ 80%)”.
For `COC1CCN(c2nccc(Nc3cc4c(cn3)c(N3CCN(Cc5ccc6c(c5)C(=S)N(C5CCC(=O)NC5=O)C6)CC3)nn4C(C)C)n2)CC1` (stereo not shown) [GT-08763, 3-(6-((4-(1-isopropyl-6-((2-(4-methoxypiperidin-1-yl)pyrimidin-4-yl)amino)-1H-pyrazolo[4,3-c]pyridin-3-yl)piperazin-1-yl)methyl)-1-thioxoisoindolin-2-yl)piperidine-2,6-dione], the inhibition at 0.01 µM in the experiment on MV-4-11 (Table I-3, EGFR inhibitors) was in the range of 30 to 40%; in the experiment on RPMI-8226 (Table I-3, EGFR inhibitors) it was 30 to 40%. Also, the inhibition at 0.5 µM in the experiment with MV-4-11 (Table I-3, EGFR inhibitors) was in the range of 50 to 60%; in the experiment on RPMI-8226 (Table I-3, EGFR inhibitors), 50 to 60%; in experiment [1] it was 30 to 40%. In the experiment on EGFR, the “Degradation of substrate protein EGFR” value is recorded as “A (0% ≤ substrate protein remaining % ≤ 80%)”. Besides, the inhibition at 2 µM in experiment [1] is 80 to 100%.
Consider `COc1cc(N2CCC(N3CCN(Cc4ccc5c(c4)C(=S)N(C4CCC(=O)NC4=O)C5)CC3)CC2)c(C)cc1Nc1ncc(Br)c(Nc2ccc3nccnc3c2P(C)(C)=O)n1` (stereo not shown) [GT-08762, 3-(6-((4-(1-(4-((5-bromo-4-((5-(dimethylphosphoryl)quinoxalin-6-yl)amino)pyrimidin-2-yl)amino)-5-methoxy-2-methylphenyl)piperidin-4-yl)piperazin-1-yl)methyl)-1-thioxoisoindolin-2-yl)piperidine-2,6-dione], for which, in the experiment with MV-4-11 (Table I-3, EGFR inhibitors), the inhibition at 0.01 µM lay within 30 to 40% and the inhibition at 0.5 µM fell in the range of 80 to 100%. For the same compound, in the experiment on RPMI-8226 (Table I-3, EGFR inhibitors), the inhibition at 0.01 µM was in the range of 30 to 40% and the inhibition at 0.5 µM is 40 to 50%. Also, in the experiment on EGFR, the “Degradation of substrate protein EGFR” value was “A (0% ≤ substrate protein remaining % ≤ 80%)”. For the same compound, in experiment [1], the inhibition at 0.5 µM lay in the range of 60 to 80% and the inhibition at 2 µM lay in the range of 80 to 100%.
